Measurements taken from ChEMBL document CHEMBL3039007, “Structure-based identification of OATP1B1/3 inhibitors” (Mol Pharmacol, 2013).

Tests used:
[1] = biological target: T1, Solute carrier organic anion transporter family member 1B3 (Homo sapiens, UniProt Q9NPD5); conditions: chinese hamster, cho, 10 µM
T1 sequence (Q9NPD5 whole entry): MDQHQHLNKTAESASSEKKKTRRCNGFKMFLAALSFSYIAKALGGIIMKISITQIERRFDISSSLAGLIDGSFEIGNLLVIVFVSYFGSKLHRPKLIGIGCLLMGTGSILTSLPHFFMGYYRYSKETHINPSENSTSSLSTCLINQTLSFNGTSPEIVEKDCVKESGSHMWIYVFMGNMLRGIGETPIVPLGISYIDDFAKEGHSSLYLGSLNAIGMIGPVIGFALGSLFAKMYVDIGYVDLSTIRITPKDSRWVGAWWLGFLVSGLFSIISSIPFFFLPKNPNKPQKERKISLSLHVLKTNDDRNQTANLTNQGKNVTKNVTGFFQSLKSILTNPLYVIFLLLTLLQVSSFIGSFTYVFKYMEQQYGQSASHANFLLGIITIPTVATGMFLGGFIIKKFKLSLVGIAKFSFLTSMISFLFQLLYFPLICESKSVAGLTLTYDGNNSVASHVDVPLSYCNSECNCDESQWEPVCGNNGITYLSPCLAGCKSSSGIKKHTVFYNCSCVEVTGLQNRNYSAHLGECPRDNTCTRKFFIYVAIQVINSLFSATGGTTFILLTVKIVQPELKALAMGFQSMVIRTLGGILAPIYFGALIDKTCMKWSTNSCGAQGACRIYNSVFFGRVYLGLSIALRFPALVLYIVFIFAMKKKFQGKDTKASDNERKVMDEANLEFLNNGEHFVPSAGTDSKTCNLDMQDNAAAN

[2] = biological target: T2, Solute carrier organic anion transporter family member 1B1 (Homo sapiens, UniProt Q9Y6L6); conditions: chinese hamster, cho, 10 µM
T2 sequence (Q9Y6L6 whole entry): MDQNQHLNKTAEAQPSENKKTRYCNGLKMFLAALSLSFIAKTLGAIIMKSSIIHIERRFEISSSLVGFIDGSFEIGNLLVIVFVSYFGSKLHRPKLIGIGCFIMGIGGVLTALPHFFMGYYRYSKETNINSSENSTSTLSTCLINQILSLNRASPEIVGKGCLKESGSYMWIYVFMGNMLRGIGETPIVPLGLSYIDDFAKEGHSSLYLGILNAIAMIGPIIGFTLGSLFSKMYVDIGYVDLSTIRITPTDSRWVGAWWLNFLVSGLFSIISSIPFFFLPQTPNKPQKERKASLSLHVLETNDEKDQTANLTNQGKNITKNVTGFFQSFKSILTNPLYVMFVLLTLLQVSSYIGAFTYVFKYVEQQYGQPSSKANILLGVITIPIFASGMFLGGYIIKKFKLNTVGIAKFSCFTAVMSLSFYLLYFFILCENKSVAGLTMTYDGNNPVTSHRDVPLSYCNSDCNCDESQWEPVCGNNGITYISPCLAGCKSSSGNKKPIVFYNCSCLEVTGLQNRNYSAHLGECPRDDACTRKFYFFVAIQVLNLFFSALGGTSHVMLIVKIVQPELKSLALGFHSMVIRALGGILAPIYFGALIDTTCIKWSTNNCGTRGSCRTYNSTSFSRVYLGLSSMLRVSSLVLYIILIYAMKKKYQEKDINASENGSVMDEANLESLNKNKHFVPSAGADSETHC

SMILES | residual activity [1] | residual activity [2]
COc1cc(OC)c(-c2c(OC)cc(OC)cc2OC)c(OC)c1 [DIFUCOL HEXAMETHYL ETHER] | 105.6% | 117.5%
O=C1C=CC(=O)c2c(O)cccc21 [JUGLONE] | 93.79% | 66.93%
CCC(C)C(=O)c1c(O)c(C)c2oc3c(C)c(O)c(C(=O)C(C)CC)c(O)c3c2c1O (configuration not stated) [RHODOMYRTOXIN B] | 37.47% | 8.078%
O=C(O)c1cc(/N=N/c2ccc(S(=O)(=O)Nc3ccccn3)cc2)ccc1O [SULFASALAZINE] | 72.91% | 126.2%
CN1CCCN=C1COC(=O)C(O)(c1ccccc1)C1CCCCC1.Cl (configuration not stated) [OXYPHENCYCLIMINE HYDROCHLORIDE] | 103.9% | 92.1%
CC(C)[C@@H]1CC[C@@H](C)CC1=O [MENTHONE] | 100.2% | 96.98%
COc1ccc([C@@H]2Sc3ccccc3N(CCN(C)C)C(=O)[C@@H]2OC(C)=O)cc1.Cl [DILTIAZEM HYDROCHLORIDE] | 80.81% | 26.71%
CCC(C)C(=O)OC1[C@@H]2CC3=C4CC(=O)O[C@@H](c5ccoc5)[C@]4(C)CCC3[C@@](C)(C2=O)[C@@H](CC(=O)OC)C1(C)C (some centres not stated) [KHAYASIN] | 83.34% | 98.52%
CCc1ccc(CCOc2ccc(CC3SC(=O)NC3=O)cc2)nc1.Cl (configuration not stated) [PIOGLITAZONE HYDROCHLORIDE] | 88.74% | 122.7%
CN(C)CCCN1c2ccccc2Sc2ccccc21.Cl [PROMAZINE HYDROCHLORIDE] | 81.19% | 82.72%
CC(C)[C@@H](C)/C=C/[C@@H](C)[C@H]1CC[C@H]2C3=CC=C4C[C@@H](O)CC[C@]4(C)[C@H]3CC[C@]12C [ERGOSTEROL] | 52.34% | 31.68%
ClC1=C(Cl)C2(Cl)C3C4C=CC(C4)C3C1(Cl)C2(Cl)Cl (configuration not stated) [ALDRIN] | 124.9% | 121.9%
O=C(O)c1cc(O)c2c(c1)C(=O)c1cc(O)cc(O)c1C2=O [EMODIC ACID] | 72.9% | 150%
CC(COc1ccccc1)NC(C)C(O)c1ccc(O)cc1.Cl (configuration not stated) [ISOXSUPRINE HYDROCHLORIDE] | 77.52% | 38.44%
CC(C)CCC[C@@H](C)[C@H]1CC[C@H]2[C@@H]3CC[C@H]4CC(=O)CC[C@]4(C)[C@H]3CC[C@]12C [CHOLESTAN-3-ONE] | 73.06% | 74.43%
C=C1CCC(C2CC(=O)OC2=O)C(=O)CCC2C1CC2(C)C (configuration not stated) [2-METHYLENE-5-(2,5-DIOXOTETRAHYDROFURAN-3-YL)-6-OXO--10,10-DIMETHYLBICYCLO[7: 2: 0]UNDECANE] | 47.58% | 29.82%
Cc1onc(-c2ccccc2)c1-c1ccc(S(N)(=O)=O)cc1 [VALDECOXIB] | 94.41% | 120.4%
O=C([O-])c1cc(=O)c2c(OCC(O)COc3cccc4oc(C(=O)[O-])cc(=O)c34)cccc2o1.[Na+].[Na+] [CROMOLYN SODIUM] | 94.62% | 101.2%
CC(C)c1c(O)ccc2c1CC[C@H]1[C@@](C)(C=O)CCC[C@]21C [TOTARAL] | 100.9% | 80.52%
Cl.NCC(=O)c1ccccc1 [PHENACYLAMINE HYDROCHLORIDE] | 95.9% | 77.38%
C[C@]12CC[C@@H]3c4ccc(O)cc4CC[C@H]3[C@@H]1CC[C@@H]2O [ESTRADIOL] | 131.9% | 125.9%
CNC(=O)Oc1cccc2c1OC(C)(C)C2 [CARBOFURAN] | 111.1% | 100.9%
COc1cc(O)c(C)c(O)c1 [2,6-DIHYDROXY-4-METHOXYTOLUENE] | 91.69% | 108.8%

SMILES | residual activity [1] | residual activity [2]
CN[C@@H](Cc1c[nH]c2ccccc12)C(=O)O [ABRINE] | 98.3% | 86.73%
C[C@H](C[C@@H](O)[C@@H]1OC1(C)C)[C@@H]1CC[C@]2(C)C3=CC[C@H]4C(C)(C)C(=O)CC[C@]4(C)[C@H]3CC[C@@]12C [NILOTICIN] | 113.7% | 72.03%
O=C1c2ccc(O)c(O)c2C(=O)c2c(O)ccc(O)c21 [QUINALIZARIN] | 75.87% | 57.07%
CCC(=O)OCC(=O)[C@@]1(OC(=O)CC)[C@@H](C)C[C@H]2[C@@H]3CCC4=CC(=O)C=C[C@]4(C)[C@@]3(Cl)[C@@H](O)C[C@@]21C [BECLOMETHASONE DIPROPIONATE] | 14.78% | 41.53%
C[C@]12C=CC(=O)C=C1CC[C@@H]1[C@@H]2[C@@H](O)C[C@@]2(C)[C@H]1CC[C@]2(O)C(=O)CO [PREDNISOLONE] | 110.4% | 79.83%
COc1cc2c(cc1OC)C1(O)C(=O)c3ccc(O)c(C(=O)O)c3OC1CO2 (configuration not stated) [12a-HYDROXY-9-DEMETHYLMUNDUSERONE-8-CARBOXYLIC ACID] | 86.59% | 215.8%
CCCCOc1ccc(C(=O)CCN2CCCCC2)cc1.Cl [DYCLONINE HYDROCHLORIDE] | 83.62% | 170.9%
CC1(C)Oc2ccc3ccc(=O)oc3c2CC1O (configuration not stated) [LOMATIN] | 142.3% | 92.91%
CC(C(=O)O)c1ccc(N2Cc3ccccc3C2=O)cc1 (configuration not stated) [INDOPROFEN] | 96.18% | 97.2%
CC12CC3CC(C)(C1)CC(N)(C3)C2.Cl [MEMANTINE HYDROCHLORIDE] | 88.95% | 88.64%
CSCC[C@H](NC=O)C(=O)N[C@@H](CC(C)C)C(=O)N[C@@H](Cc1ccccc1)C(=O)O | 120.4% | 76.72%
COc1ccc(C(C)=O)c(O)c1 [PAEONOL] | 108.3% | 121.7%
C[n+]1c2cc(N)ccc2cc2ccc(N)cc21.[Cl-] [EUFLAVINE] | 93.94% | 105.1%
CC(=O)OCC(=O)[C@@]1(O)CC[C@H]2[C@@H]3CCC4=CC(=O)CC[C@]4(C)[C@@]3(F)[C@@H](O)C[C@@]21C [FLUDROCORTISONE ACETATE] | 71.2% | 36.29%
COc1ccc(-c2c(OC)c3c(OC)c4c(cc3oc2=O)OC(C)(C)C=C4)cc1 [ROBUSTIC ACID METHYL ETHER] | 140.2% | 184.1%
CCCCNc1ccc(C(=O)OCCN(C)C)cc1.Cl [TETRACAINE HYDROCHLORIDE] | 88.3% | 61.91%
O=c1c(O)cc([C@H]2Oc3cc(O)cc(O)c3C[C@H]2O)cc2c([C@H]3Oc4cc(O)cc(O)c4C[C@H]3O)cc(O)c(O)c12 [THEAFLAVIN] | 75.27% | 53%
CS(=O)(=O)[O-].C[n+]1ccccc1C=NO [PRALIDOXIME MESYLATE] | 98.72% | 73.31%
CCOc1ccc2c(c1)C(C)=CC(C)(C)N2 [E324] | 119.7% | 108.3%
COc1cc(OC)c2c(=O)c(-c3ccccc3)coc2c1 [5,7-DIMETHOXYISOFLAVONE] | 104.7% | 99.46%
O=C1CCC[C@@H]2[C@H]3C[C@@H](CN12)[C@@H]1CCCCN1C3.[O-][Cl+3]([O-])([O-])O | 104.5% | 115.5%
C=C[C@@](C)(O)CCC1C(=C)CCC2[C@@](C)(CO)CCC[C@]12C (stereo partly drawn) [EPI(13)TORULOSOL] | 115.1% | 109%
O=C1C=C2CC3(O)COc4c(ccc(O)c4O)C3=C2C=C1O (configuration not stated) [HEMATEIN] | 73.22% | 65.79%
